For orientation: inhibition means the drop in the measured response relative to a control, in per cent. One may read the IC50 as the concentration at which inhibition is half-maximal. High values mean weaker potency, low ones greater potency. In general, Ki refers to the equilibrium dissociation constant of an inhibitor or competing ligand from its target. High values mean a looser hold on the target, low ones a stronger hold on the target.

The source made the active and inactive calls. No cut-off for these calls is given here.

Data set [1] has as its target T1, Tyrosine-protein phosphatase non-receptor type 1 (Homo sapiens) (UniProt P18031).
T1 sequence (whole entry): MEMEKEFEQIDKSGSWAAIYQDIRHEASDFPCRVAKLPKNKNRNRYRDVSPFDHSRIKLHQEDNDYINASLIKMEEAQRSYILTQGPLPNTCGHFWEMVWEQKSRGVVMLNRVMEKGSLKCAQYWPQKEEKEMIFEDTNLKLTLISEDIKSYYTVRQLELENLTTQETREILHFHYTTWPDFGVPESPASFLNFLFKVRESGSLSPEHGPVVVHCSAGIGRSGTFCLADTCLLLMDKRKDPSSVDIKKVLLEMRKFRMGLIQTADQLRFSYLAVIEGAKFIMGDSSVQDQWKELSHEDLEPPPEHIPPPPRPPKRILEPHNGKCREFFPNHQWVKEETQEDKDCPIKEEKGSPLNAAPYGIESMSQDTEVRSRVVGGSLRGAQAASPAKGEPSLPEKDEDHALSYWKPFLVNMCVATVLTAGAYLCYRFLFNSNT
In words: Inhibition of GST-tagged PTP1B (unknown origin) at 10 uM by plate reader analysis using DiFMUP as substrate.

The target of data set [2] is T2, Receptor-type tyrosine-protein phosphatase S (Homo sapiens, UniProt Q13332). In words: Inhibition of GST-tagged PTP-sigma (unknown origin) at 10 uM by plate reader analysis using DiFMUP as substrate.
T2 sequence (Q13332 whole entry): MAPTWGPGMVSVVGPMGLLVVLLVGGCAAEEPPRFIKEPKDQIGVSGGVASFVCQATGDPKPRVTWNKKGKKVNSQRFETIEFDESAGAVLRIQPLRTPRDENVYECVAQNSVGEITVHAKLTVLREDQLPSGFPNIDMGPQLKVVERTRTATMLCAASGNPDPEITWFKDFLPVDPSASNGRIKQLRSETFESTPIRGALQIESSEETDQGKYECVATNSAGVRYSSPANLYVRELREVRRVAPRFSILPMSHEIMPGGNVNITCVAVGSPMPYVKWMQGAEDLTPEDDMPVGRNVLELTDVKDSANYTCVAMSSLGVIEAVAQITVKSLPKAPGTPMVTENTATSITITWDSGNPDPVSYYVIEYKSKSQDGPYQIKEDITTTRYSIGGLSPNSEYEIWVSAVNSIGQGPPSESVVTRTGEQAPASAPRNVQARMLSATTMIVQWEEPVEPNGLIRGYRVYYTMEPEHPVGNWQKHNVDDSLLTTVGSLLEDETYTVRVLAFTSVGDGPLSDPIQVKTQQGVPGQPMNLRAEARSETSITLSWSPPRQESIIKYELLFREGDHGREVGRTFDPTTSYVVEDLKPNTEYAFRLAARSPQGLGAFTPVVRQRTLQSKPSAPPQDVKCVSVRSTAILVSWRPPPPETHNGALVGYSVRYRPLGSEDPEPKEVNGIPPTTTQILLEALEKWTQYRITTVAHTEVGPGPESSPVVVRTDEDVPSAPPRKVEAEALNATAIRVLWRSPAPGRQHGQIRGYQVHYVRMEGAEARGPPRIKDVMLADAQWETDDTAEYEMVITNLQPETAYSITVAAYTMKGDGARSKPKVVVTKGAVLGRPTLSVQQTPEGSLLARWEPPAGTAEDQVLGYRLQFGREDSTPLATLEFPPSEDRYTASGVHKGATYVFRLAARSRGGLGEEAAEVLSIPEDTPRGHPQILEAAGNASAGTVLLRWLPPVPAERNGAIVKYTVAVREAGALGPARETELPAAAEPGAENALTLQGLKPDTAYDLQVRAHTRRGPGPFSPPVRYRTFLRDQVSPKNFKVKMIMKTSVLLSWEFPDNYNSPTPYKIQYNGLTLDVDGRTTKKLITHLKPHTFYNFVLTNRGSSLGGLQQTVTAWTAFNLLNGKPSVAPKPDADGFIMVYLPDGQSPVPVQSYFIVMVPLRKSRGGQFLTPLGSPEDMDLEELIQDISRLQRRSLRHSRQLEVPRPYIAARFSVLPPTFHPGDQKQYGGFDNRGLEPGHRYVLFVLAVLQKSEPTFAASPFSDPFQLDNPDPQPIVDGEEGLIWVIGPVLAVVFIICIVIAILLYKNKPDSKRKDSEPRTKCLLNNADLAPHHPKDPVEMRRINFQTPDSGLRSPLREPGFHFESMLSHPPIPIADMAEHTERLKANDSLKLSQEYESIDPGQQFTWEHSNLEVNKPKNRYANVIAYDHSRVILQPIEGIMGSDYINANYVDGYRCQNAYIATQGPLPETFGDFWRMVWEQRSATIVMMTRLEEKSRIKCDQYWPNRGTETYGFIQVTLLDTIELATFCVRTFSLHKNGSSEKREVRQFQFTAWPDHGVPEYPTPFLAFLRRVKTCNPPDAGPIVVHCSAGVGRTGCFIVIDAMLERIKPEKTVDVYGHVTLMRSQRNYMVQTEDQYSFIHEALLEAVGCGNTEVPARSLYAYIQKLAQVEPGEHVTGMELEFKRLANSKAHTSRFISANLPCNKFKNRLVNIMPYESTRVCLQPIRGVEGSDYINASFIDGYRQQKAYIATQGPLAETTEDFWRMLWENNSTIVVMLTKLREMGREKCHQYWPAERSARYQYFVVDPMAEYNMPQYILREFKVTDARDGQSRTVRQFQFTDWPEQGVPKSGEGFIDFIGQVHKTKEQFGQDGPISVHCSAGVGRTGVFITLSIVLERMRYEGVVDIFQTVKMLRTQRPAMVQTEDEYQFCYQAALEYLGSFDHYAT
Data set [3] deals with T3, Tyrosine-protein phosphatase non-receptor type 1 (Homo sapiens, UniProt P18031).
T3 sequence (P18031 whole entry): T1 sequence (whole entry)
In words: Inhibition of GST-tagged PTP1B (unknown origin) by plate reader analysis using DiFMUP as substrate.

Data set [4] deals with T4, Receptor-type tyrosine-protein phosphatase C (Homo sapiens) (UniProt P08575).
T4 sequence (whole entry): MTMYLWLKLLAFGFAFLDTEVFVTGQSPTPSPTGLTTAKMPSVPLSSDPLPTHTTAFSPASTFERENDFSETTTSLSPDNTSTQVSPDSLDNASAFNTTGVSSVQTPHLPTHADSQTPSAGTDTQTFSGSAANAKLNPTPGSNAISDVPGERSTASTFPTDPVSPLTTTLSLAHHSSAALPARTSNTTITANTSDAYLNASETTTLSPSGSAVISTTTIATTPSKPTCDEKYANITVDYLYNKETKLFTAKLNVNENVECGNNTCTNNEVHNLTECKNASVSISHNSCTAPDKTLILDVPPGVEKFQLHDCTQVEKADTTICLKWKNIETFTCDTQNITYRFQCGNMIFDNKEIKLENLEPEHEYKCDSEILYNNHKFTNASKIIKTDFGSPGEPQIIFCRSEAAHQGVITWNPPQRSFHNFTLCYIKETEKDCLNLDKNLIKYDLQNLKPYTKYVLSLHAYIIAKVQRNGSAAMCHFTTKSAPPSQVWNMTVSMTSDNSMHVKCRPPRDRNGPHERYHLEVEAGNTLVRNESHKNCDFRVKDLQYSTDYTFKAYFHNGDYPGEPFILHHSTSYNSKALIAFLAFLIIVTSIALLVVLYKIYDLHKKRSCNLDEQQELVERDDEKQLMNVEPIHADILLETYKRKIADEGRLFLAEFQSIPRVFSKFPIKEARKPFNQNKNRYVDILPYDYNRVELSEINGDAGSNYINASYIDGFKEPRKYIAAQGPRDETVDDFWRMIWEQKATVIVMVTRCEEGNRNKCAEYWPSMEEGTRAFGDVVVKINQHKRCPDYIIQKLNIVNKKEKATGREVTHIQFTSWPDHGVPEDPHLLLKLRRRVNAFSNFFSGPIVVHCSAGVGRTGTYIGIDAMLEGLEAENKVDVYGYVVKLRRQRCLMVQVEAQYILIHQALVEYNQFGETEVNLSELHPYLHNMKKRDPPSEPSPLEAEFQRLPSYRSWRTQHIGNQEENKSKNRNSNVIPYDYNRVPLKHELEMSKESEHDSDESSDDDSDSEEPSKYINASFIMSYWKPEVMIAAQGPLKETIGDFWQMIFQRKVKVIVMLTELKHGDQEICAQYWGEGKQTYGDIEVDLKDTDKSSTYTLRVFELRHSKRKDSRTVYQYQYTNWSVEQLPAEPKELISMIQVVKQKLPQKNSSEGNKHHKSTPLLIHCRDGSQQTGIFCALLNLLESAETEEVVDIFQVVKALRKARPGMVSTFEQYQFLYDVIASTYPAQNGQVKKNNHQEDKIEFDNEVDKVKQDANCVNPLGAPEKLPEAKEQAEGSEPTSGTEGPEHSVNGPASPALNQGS
In words: Inhibition of GST-tagged CD45 D1D2 domain (unknown origin) at 10 uM by plate reader analysis using DiFMUP as substrate.

For data set [5], the target named is T5, Tyrosine-protein phosphatase non-receptor type 2 (Homo sapiens) (UniProt P17706).
T5 sequence (whole entry): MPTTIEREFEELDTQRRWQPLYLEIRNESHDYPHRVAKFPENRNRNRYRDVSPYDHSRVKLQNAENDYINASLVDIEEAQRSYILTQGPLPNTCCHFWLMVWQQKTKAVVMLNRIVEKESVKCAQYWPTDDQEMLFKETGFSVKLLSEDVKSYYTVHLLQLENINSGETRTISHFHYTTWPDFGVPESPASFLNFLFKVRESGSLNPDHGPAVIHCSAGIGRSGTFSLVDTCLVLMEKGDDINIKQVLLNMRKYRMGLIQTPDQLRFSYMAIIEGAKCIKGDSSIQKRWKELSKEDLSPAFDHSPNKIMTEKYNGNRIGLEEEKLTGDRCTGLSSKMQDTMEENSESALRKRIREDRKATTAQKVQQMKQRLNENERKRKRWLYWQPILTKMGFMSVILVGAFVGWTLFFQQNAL
In words: Inhibition of GST-tagged TCPTP (unknown origin) at 10 uM by plate reader analysis using DiFMUP as substrate.

For data set [6], the target named is T2, Receptor-type tyrosine-protein phosphatase S. In words: Inhibition of GST-tagged PTP-sigma (unknown origin) by plate reader analysis using DiFMUP as substrate.
For data set [7], the system named is CHO. In words: Cytotoxicity against CHO cells expressing human insulin receptor at 0.78 to 50 uM after 72 hrs by cell-titer blue assay. The format is cell-based, Cricetulus griseus. To be noted: chinese hamster.
The species entered for data set [8] is Homo sapiens. In words: Inhibition of GST-tagged PRL2 A/S mutant (unknown origin) at 10 uM by plate reader analysis using DiFMUP as substrate.
In data set [9] the target is Receptor-type tyrosine-protein phosphatase F (Homo sapiens) (UniProt P10586). In words: Inhibition of GST-tagged LAR (unknown origin) at 10 uM by plate reader analysis using DiFMUP as substrate.
Sequence of Receptor-type tyrosine-protein phosphatase F (Homo sapiens) (P10586 whole entry): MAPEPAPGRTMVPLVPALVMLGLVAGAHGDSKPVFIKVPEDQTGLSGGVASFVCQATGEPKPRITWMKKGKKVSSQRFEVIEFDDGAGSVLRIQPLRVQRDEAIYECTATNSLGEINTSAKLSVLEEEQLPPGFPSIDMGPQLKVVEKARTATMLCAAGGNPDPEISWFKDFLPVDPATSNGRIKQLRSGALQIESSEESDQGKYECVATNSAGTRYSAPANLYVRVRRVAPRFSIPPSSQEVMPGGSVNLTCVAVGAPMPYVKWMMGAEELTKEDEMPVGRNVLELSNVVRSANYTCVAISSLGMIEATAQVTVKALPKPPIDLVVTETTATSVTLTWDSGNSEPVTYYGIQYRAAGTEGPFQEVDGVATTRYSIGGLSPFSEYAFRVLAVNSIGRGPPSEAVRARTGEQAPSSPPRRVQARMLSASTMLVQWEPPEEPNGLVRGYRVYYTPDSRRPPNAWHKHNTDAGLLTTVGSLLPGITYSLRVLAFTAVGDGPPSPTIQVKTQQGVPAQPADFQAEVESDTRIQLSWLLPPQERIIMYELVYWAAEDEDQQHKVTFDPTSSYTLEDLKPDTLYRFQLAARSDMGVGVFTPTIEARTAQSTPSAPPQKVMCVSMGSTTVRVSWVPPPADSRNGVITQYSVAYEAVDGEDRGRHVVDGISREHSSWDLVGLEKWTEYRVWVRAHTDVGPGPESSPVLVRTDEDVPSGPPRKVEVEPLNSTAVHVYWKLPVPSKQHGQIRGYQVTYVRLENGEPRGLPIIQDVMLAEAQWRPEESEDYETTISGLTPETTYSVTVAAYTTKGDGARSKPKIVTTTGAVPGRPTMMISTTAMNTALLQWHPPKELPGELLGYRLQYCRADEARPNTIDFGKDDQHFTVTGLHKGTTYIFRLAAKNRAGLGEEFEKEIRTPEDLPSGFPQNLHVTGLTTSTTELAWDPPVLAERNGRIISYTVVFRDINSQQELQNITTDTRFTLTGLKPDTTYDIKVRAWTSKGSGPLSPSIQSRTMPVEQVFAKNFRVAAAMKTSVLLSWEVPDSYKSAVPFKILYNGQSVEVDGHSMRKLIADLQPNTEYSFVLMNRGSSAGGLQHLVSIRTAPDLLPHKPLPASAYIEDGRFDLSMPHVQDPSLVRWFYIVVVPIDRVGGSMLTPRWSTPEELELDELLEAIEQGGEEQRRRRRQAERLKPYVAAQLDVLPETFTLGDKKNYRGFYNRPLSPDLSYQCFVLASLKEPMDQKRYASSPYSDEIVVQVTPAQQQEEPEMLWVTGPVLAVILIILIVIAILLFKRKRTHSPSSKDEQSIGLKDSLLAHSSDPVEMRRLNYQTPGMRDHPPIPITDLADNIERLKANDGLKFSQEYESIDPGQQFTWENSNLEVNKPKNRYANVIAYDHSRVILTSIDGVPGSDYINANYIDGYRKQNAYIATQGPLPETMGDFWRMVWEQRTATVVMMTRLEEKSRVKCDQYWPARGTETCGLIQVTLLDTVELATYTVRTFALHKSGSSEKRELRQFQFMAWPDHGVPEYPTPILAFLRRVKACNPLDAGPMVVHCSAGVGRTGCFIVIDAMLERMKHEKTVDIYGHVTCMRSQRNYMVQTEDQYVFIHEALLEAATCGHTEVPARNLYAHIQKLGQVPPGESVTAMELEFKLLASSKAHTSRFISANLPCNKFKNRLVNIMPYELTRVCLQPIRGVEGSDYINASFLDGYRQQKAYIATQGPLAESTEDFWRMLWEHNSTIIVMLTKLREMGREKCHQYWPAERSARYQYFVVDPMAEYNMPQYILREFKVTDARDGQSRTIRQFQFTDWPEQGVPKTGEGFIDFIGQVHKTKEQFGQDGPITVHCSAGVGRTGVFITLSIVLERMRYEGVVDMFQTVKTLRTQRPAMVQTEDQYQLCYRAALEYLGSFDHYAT
Data set [10] addresses T6, Dual specificity protein phosphatase 22 (Homo sapiens) (UniProt Q9NRW4).
T6 sequence (whole entry): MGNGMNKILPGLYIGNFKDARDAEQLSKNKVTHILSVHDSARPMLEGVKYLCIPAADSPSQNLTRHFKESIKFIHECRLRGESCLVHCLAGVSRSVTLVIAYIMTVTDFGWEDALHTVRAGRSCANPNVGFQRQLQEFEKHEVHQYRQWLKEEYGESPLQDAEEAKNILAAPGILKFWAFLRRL
In words: Inhibition of GST-tagged MKPX (unknown origin) at 10 uM by plate reader analysis using DiFMUP as substrate.

For data set [11], the system named is CHO. In words: Inhibition of PTP1B in CHO cells assessed as increase in phosphorylation of transfected human insulin receptor by western blot analysis. It is filed as cell-based. The note with it: Cricetulus griseus. In general terms: Immunoblotting shows a protein as a band on a membrane.
The species entered for data set [12] is Homo sapiens. In words: Selectivity ratio, ratio of IC50 for PTP sigma (unknown origin) to IC50 for PTP1B (unknown origin).
For data set [13], the system named is CHO. In words: Inhibition of PTP1B in CHO cells assessed as increase in phosphorylation of transfected human insulin receptor at 50 uM by western blot analysis. The format is cell-based. The note with it: Cricetulus griseus.
The species entered for data set [14] is Homo sapiens. In words: Selectivity ratio, ratio of IC50 for PTP1B (unknown origin) to IC50 for PTP sigma (unknown origin).
The target in data set [15] is T3, Tyrosine-protein phosphatase non-receptor type 1. In words: Competitive inhibition of GST-tagged PTP1B (unknown origin) by plate reader analysis using DiFMUP as substrate.
Data set [16] deals with T6, Dual specificity protein phosphatase 22 (Homo sapiens). In words: Inhibition of GST-tagged MKPX (unknown origin) by plate reader analysis using DiFMUP as substrate.
The species entered for data set [17] is Homo sapiens. In words: Inhibition of GST-tagged PRL2 A/S mutant (unknown origin) by plate reader analysis using DiFMUP as substrate.
The target in data set [18] is Receptor-type tyrosine-protein phosphatase F (Homo sapiens) (UniProt P10586). In words: Inhibition of GST-tagged LAR (unknown origin) by plate reader analysis using DiFMUP as substrate.
In data set [19] the target is T7, Papain (Carica papaya) (UniProt P00784).
T7 sequence (whole entry): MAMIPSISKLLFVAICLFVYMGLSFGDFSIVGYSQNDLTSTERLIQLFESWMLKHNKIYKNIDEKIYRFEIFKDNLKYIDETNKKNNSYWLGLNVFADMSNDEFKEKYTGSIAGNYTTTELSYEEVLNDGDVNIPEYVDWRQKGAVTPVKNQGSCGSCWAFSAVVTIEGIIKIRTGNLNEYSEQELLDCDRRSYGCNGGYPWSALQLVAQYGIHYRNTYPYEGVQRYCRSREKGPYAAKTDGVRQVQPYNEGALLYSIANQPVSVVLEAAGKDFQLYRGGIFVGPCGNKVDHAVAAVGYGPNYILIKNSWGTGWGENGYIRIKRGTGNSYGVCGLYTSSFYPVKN
In words: Inhibition of papaya papain by plate reader analysis using Z-Phe-Arg-pNA substrate.

With `O=C(CCCCCn1cc(CN(CC(=O)N(Cc2ccc(C3CCCCC3)cc2)c2ccc(C(=O)O)c(O)c2)S(=O)(=O)c2cccc3cccnc23)nn1)Nc1ccc(C(=O)O)c(O)c1`, the inhibition in data set [1], in [2] and in data set [5] was > 90% in each case. The IC50 in data set [3] was 2400 nM; in data set [6], 900 nM. Also, the inhibition entry in data set [4], in [8], in [9] and in data set [10] was “inactive” throughout. Further, the Activity result in data set [7] is “Non-toxic”; in data set [11], “Dose-dependent effect”.

Consider `O=C(CCCn1cc(CN(CC(=O)N(Cc2ccc(C3CCCCC3)cc2)c2ccc(C(=O)O)c(O)c2)S(=O)(=O)c2cccc3cccnc23)nn1)Nc1ccc(C(=O)O)c(O)c1`, for which, in data set [12], the Ratio IC50 was 4. Also, the inhibition in data set [1], in data set [2] and in [5] was > 90% in each case. Besides, the IC50 is 1700 nM in data set [3] and 7900 nM in [6]. Further, the inhibition result in [4], in [8], in data set [9] and in [10] was “inactive” each time. Also, the Activity result is “Non-toxic” in data set [7] and “Dose-dependent effect” in data set [11].

For the molecule VANADATE, the result in [13] was Active.

As for `O=C(CCCCn1cc(CN(CC(=O)N(Cc2ccc(C3CCCCC3)cc2)c2ccc(C(=O)O)c(O)c2)S(=O)(=O)c2cccc3cccnc23)nn1)Nc1ccc(C(=O)O)c(O)c1`, the inhibition in data set [1], in data set [2] and in data set [5] was > 90% throughout. In addition, the IC50 came to 2300 nM in data set [3] and 600 nM in data set [6]. Besides, the inhibition entry in [4], in [8], in data set [9] and in [10] was “inactive” throughout. For the same molecule, the Ratio IC50 in data set [14] was 4.

Consider `O=C(CCn1cc(CN(CC(=O)N(Cc2ccc(C3CCCCC3)cc2)c2ccc(C(=O)O)c(O)c2)S(=O)(=O)c2cccc3cccnc23)nn1)Nc1ccc(C(=O)O)c(O)c1`, for which the inhibition in [1], in data set [2] and in data set [5] was > 90% in each case. For the same molecule, the IC50 turned out to be 6100 nM in data set [3] and 11800 nM in [6]. For the same molecule, the inhibition result in [4], in data set [8], in data set [9] and in data set [10] was “inactive” each time.

With `O=C(Cn1cc(CN(CC(=O)N(Cc2ccc(C3CCCCC3)cc2)c2ccc(C(=O)O)c(O)c2)S(=O)(=O)c2cccc3cccnc23)nn1)Nc1ccc(C(=O)O)c(O)c1`, the inhibition in [1], in data set [2] and in [5] was > 90% each time. Besides, the IC50 in data set [3] is 3600 nM; in data set [6], 15600 nM. In addition, the inhibition entry in data set [4], in data set [8], in data set [9] and in data set [10] was “inactive” in each case. The Activity result was “Non-toxic” in data set [7] and “Dose-dependent effect” in data set [11]. The molecule also displayed a Ki in [15] of 1830 nM.

For the molecule `CN(CC(=O)N(Cc1ccc(C2CCCCC2)cc1)c1ccc(C(=O)O)c(O)c1)S(=O)(=O)c1cccc2cccnc12`, the inhibition entry in data set [16], in data set [17], in data set [18] and in [19] was “inactive” each time. Moreover, the Ki in data set [15] turned out to be 5660 nM.

These data come from ChEMBL document CHEMBL3632539, “Identification of Bidentate Salicylic Acid Inhibitors of PTP1B” (ACS Med Chem Lett, 2015).
